The record followed here is publication doi:10.1101/374926v1 (bioRxiv, 2018).

Series [1] relates to GR*-eGFP in Saos-2(GIGT) cells. Briefly: Glucocorticoid-induced eGFP translocation. It counts as cell-based, human. Particulars: 1 μM, 30 min.
Series [2] deals with eGFP-hGal3 in Saos-2 cells. Put plainly: Galectin recruitment assay for endosomal damage. Type of series: cell-based, human.
In series [3] the test system is eGFP-hGal8 in Saos-2 cells. Put plainly: Galectin recruitment assay for endosomal damage. It counts as cell-based, human. The note with it: RNAiMAX 16 μL/mL or LLOMe 1 mM, 1 h.
Series [4] concerns Saos-2 cells. Put plainly: FCS-based Lys9^R endosomal leakage assay. It counts as cell-based, human. Particulars: for Lys9^R delivery efficiency (DE), cytosol / Lys9^R delivery efficiency (DE), nucleus: 60 min, FCS, n > 10 cells.
Series [5] in a line: In vitro FCS diffusion measurement. It counts as physicochemical. Particulars: Milli-Q water.
The mark [6] stands for this setting: 2,500 cells per well in transfection medium.

Regarding “K^Dex–GPSQPTYPGDDAPVRDLIRFYRDLRRYLNVVTR HRY-CONH2 [1^Dex]”, the entries for the “translocation ratio (TR)” value in series [1] (setting [6]), in series [1] (complete media) and in series [1] (transfection media) were 3.0 ± 0.40, “around 2.0” and “around 3.0”, respectively. Moreover, in series [1] (cells transfected with non-targeting siRNA, non-treated 1.2 ± 0.1), the “mean translocation ratio (TR)” value is 2.4 ± 0.3.
Take `COC(=O)[C@H](CC(C)C)NC(=O)[C@@H](N)CC(C)C` [LLOMe, L-leucyl-L-leucine methyl ester]: the “vesicular staining compared to the total cell area” value in series [2] (LLOMe 1 mM, 1 hour, corresponds to ERC 400.0) amounted to 4%. In addition, in series [2] (LLOMe 1 mM, 1 hour, untreated cells around 0.0), the “ERC value routinely obtained” value was around 400.0. Further, the “increase of average ERC over untreated cells, eGFP-hGal3” value in series [2] (RNAiMAX 16 μL/mL or LLOMe 1 mM, 1 h) is given as 147 fold. In addition, in series [3], the “increase of average ERC over untreated cells, eGFP-hGal8” value was found to be 68 fold. For the same molecule, the “Lys9^R delivery efficiency (DE), cytosol” value was determined as 3% in series [4] (LLOMe 0.125 mM, no agent: 3); 4% in series [4] (LLOMe 0.25 mM); 8% in series [4] (LLOMe 0.5 mM); 9% in series [4] (LLOMe 1.0 mM). The “Lys9^R delivery efficiency (DE), nucleus” value in series [4] (LLOMe 0.125 mM, no agent: 4) amounted to 6%; in series [4] (LLOMe 0.25 mM) it was 12%; in series [4] (LLOMe 0.5 mM), 12%; in series [4] (LLOMe 1.0 mM), 12%. The “endosomal leakage of Lys9^R” value in series [4] (LLOMe titration up to 1 mM, 1 h) is on record as “no detectable endosomal leakage”.
In the case of `C[C@@H]1C[C@H]2[C@@H]3CCC4=CC(=O)C=C[C@]4(C)[C@@]3(F)[C@@H](O)C[C@]2(C)[C@@]1(O)C(=O)CO` [Dex, dexamethasone], the “translocation ratio (TR)” value in series [1] (setting [6]) is on record as 3.4 ± 0.40.
“K^Dex-WYSCNVCGKAFVLSRHLNRHLRVHRRAT-CONH2 [2^Dex]”: the “translocation ratio (TR)” value is listed as 3.0 ± 0.090 in series [1] (setting [6]), “around 2.0” in series [1] (complete media) and “around 3.0” in series [1] (transfection media).
With Ac-KKKKKKKKK-NH2 [Lys9^UL], in series [5], the “Average τdiff in vitro at 25 °C” value turned out to be 0.064 ± 0.001 ms and the “Measured D at 25 °C” value was determined as 206 ± 3 μm^2 s^-1.
